This note sets out measurements from patent publication US10189854B2, “Substituted pyrimidine compounds” (Grünenthal GmbH, priority 2014, dated 2019).

For this experiment, the target named is human PDE4B1 (Homo sapiens (Human), UniProt Q07343). The experiment in a line: cAMP HTRF assay to determine the activity of hPDE4B1. Particulars: IC50 inhibition of PDE4B; human recombinant PDE4B1, cAMP HTRF assay. It counts as biochemical. The method in brief:
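Recombinant human PDE4B1 expressed in Sf9 cells (4.8 U) was incubated with 40 nM cAMP for 30 min at room temperature in Tris buffer, pH 7.8, with MgCl2, DTT and Tween 20. HTRF detection of remaining cAMP followed, with 1 mM IBMX stop, read 60 min later as the 665/620 nm ratio. Results are % inhibition versus control.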

Sequence of human PDE4B1 (Q07343 whole entry): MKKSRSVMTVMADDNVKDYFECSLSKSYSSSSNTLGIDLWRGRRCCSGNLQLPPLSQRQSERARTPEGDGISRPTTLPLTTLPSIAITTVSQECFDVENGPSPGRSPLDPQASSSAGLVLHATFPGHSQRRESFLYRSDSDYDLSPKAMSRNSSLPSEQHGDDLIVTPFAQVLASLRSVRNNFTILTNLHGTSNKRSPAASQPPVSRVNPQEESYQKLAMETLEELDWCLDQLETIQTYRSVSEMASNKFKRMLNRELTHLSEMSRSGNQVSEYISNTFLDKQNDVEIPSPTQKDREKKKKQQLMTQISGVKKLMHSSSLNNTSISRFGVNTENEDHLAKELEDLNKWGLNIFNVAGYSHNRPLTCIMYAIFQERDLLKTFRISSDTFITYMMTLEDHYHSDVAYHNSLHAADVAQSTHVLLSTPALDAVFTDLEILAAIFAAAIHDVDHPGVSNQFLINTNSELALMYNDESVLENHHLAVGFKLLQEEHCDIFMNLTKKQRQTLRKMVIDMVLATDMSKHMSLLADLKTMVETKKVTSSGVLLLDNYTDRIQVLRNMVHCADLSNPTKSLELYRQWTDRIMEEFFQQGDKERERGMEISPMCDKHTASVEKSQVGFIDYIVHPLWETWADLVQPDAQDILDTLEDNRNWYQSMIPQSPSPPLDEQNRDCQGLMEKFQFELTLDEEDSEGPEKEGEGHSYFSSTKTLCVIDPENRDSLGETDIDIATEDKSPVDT

What is called IC50 is the point on the concentration scale where inhibition reaches its midpoint. `O=C(c1ccc2c(n1)N(c1ncc(-c3ccccc3F)cn1)CC21CC1)N1CCOCC1` [Compound 170, [1-[5-(2-Fluorophenyl)-pyrimidin-2-yl]-spiro[1,2-dihydro-pyrrolo[2,3-b]pyridine-3,1′-cyclopropane]-6-yl]-morpholin-4-yl-methanone]: the IC50 was under 0.1 µM.

As for `O=C1CN(C(=O)c2ccc3c(c2)N(c2ncc(-c4ccccc4)cn2)CC32CC2)CCN1` [Compound 55, 4-[1-(5-Phenyl-pyrimidin-2-yl)-spiro[1,2-dihydro-indole-3,1′-cyclopropane]-6-carbonyl]-piperazin-2-one], the IC50 is under 0.1 µM.

On to `COCCCNC(=O)c1ccc2c(c1)N(c1ncc(-c3ccccc3F)cn1)CC21CC1` [Compound 75, 1-[5-(2-Fluorophenyl)-pyrimidin-2-yl]-N-(3-methoxy-propyl)-spiro[1,2-dihydro-indole-3,1′-cyclopropane]-6-carboxylic acid amide], for which the IC50 fell in the range of 0.1 to 1 µM.

With `Cc1cc(-c2cnc(N3CC4(CC4)c4ccc(C(=O)N(C)CCO)cc43)nc2)ccn1` [Compound 214, N-(2-Hydroxy-ethyl)-N-methyl-1-[5-(2-methyl-pyridin-4-yl)-pyrimidin-2-yl]-spiro[1,2-dihydro-indole-3,1′-cyclopropane]-6-carboxylic acid amide], the IC50 was under 0.1 µM.

For the compound `COc1ccsc1-c1cnc(N2CC3(CC3)c3ccc(C(=O)N4CCNC(=O)C4)cc32)nc1` [Compound 177, 4-[1-[5-(3-Methoxy-thiophen-2-yl)-pyrimidin-2-yl]-spiro[1,2-dihydro-indole-3,1′-cyclopropane]-6-carbonyl]-piperazin-2-one], the IC50 was under 0.1 µM.

`NC(=O)c1ccnc(-c2cnc(N3CC4(CC4)c4ccc(C(=O)N5CCOCC5)cc43)nc2)c1` [Compound 164, 2-[2-[6-(Morpholine-4-carbonyl)-spiro[1,2-dihydro-indole-3,1′-cyclopropane]-1-yl]-pyrimidin-5-yl]-pyridine-4-carboxylic acid amide]: the half-inhibitory concentration (IC50) is under 0.1 µM.

Regarding `Cc1nc(C)c(-c2cnc(N3CC4(CC4)c4ccc(C(=O)N5CCOCC5)cc43)nc2)s1` [Compound 154, [1-[5-(2,4-Dimethyl-thiazol-5-yl)-pyrimidin-2-yl]-spiro[1,2-dihydro-indole-3,1′-cyclopropane]-6-yl]-morpholin-4-yl-methanone], the IC50 was under 0.1 µM.

As to “Morpholin-4-yl-[1-(5-pyrimidin-4-yl-pyrimidin-2-yl)-spiro[1,2-di-hydro-indole-3,1′-cyclopropane]-6-yl]-methanone [Compound 190]”, the IC50 is under 0.1 µM.

Turning to `O=C(c1ccc2c(c1)N(c1ncc(-c3cc(C(F)(F)F)ccc3F)cn1)CC21CC1)N1CCOCC1` [Compound 23, [1-[5-[2-Fluoro-5-(trifluoromethyl)-phenyl]-pyrimidin-2-yl]-spiro[1,2-dihydro-indole-3,1′-cyclopropane]-6-yl]-morpholin-4-yl-methanone], the IC50 was under 0.1 µM.

Turning to `Cc1n[nH]c(C)c1-c1cnc(N2CC3(CC3)c3ccc(C(=O)N4CCOCC4)cc32)nc1` [Compound 144, [1-[5-(3,5-Dimethyl-1H-pyraozl-4-yl)-pyrimidin-2-yl]-spiro[1,2-di-hydro-indole-3,1′-cyclopropane]-6-yl]-morpholin-4-yl-methanone], the IC50 was under 0.1 µM.

Consider `Cn1cc(-c2cnc(N3CC4(CC4)c4ccc(C(=O)N5CCOCC5)cc43)nc2)cn1` [Compound 138, [1-[5-(1-Methyl-1H-pyrazol-4-yl)-pyrimidin-2-yl]-spiro[1,2-dihydro-indole-3,1′-cyclopropane]-6-yl]-morpholin-4-yl-methanone], for which the IC50 is under 0.1 µM.

For the compound `CS(=O)(=O)c1ccc(-c2cnc(N3CC4(CC4)c4ccc(C(=O)N5CCOCC5)cc43)nc2)c(F)c1` [Compound 29, [1-[5-(2-Fluoro-4-methylsulfonyl-phenyl)-pyrimidin-2-yl]-spiro[1,2-dihydro-indole-3,1′-cyclopropane]-6-yl]morpholin-4-yl-methanone], the IC50 was under 0.1 µM.

With `O=C(O)C1CCN(C(=O)c2ccc3c(c2)N(c2ncc(-c4ccccc4F)cn2)CC32CC2)CC1` [Compound 215, 1-[1-[5-(2-Fluorophenyl)-pyrimidin-2-yl]-spiro[1,2-dihydro-indole-3,1′-cyclopropane]-6-carbonyl]-piperidine-4-carboxylic acid], the IC50 was 1 to 10 µM.

In the case of `O=C(c1ccc2c(c1)N(c1ncc(-c3cncc(F)c3)cn1)CC21CC1)N1CCOCC1` [Compound 157, [1-[5-(5-Fluoro-pyridin-3-yl)-pyrimidin-2-yl]-spiro[1,2-dihydro-indole-3,1′-cyclopropane]-6-yl]-morpholin-4-yl-methanone], the IC50 is under 0.1 µM.

For `O=C(c1ccc2c(c1)N(c1ncc(-c3cccc(F)c3)cn1)CC21CC1)N1CCCC1` [Compound 130, [1-[5-(3-Fluorophenyl)-pyrimidin-2-yl]-spiro[1,2-dihydro-indole-3,1′-cyclopropane]-6-yl]-pyrrolidin-1-yl-methanone], the IC50 was under 0.1 µM.

Regarding `NC(=O)c1ccc(-c2cnc(N3CC4(CC4)c4ccc(C(=O)N5CCNCC5)cc43)nc2)c(F)c1` [Compound 119, 3-Fluoro-4-[2-[6-(piperazine-1-carbonyl)-spiro[1,2-dihydro-indole-3,1′-cyclopropane]-1-yl]-pyrimidin-5-yl]-benzamide], the IC50 is under 0.1 µM.

As to `O=C(c1ccc2c(c1)N(c1ncc(-c3ccncc3F)cn1)CC21CC1)N1CCOCC1` [Compound 147, [1-[5-(3-Fluoro-pyridin-4-yl)-pyrimidin-2-yl]-spiro[1,2-dihydro-indole-3,1′-cyclopropane]-6-yl]-morpholin-4-yl-methanone], the IC50 is under 0.1 µM.

For the compound `CC1(C)CN(C(=O)c2ccc3c(c2)N(c2ncc(-c4ccccc4F)cn2)CC32CC2)CCO1` [Compound 105, (2,2-Dimethyl-morpholin-4-yl)-[1-[5-(2-fluorophenyl)-pyrimidin-2-yl]-spiro[1,2-dihydro-indole-3,1′-cyclopropane]-6-yl] methanone], the IC50 fell in the range of 0.1 to 1 µM.

On to `O=C(c1ccc2c(c1)N(c1ncc(-c3ccccc3)cn1)CC21CC1)N1CCOCC1` [Compound 7, Morpholin-4-yl-[1-(5-phenyl-pyrimidin-2-yl)-spiro[1,2-dihydro-indole-3,1′-cyclopropane]-6-yl]-methanone], for which the IC50 is under 0.1 µM.

With `O=C(c1ccc2c(c1)N(c1ncc(-c3ccccc3F)cn1)CC21CC1)N1CCCCC1` [Compound 84, [1-[5-(2-Fluorophenyl)-pyrimidin-2-yl]-spiro[1,2-dihydro-indole-3,1′-cyclopropane]-6-yl]-piperidin-1-yl-methanone], the IC50 is under 0.1 µM.

“[1-[5-(4-Amino-pyridin-2-yl)-pyrimidin-2-yl]-spiro[1,2-dihydro-indole-3,1′-cyclopropane]-6-yl]-morpholin-4-yl-methanone [Compound 181]”: the IC50 is under 0.1 µM.

`N#CCCN1CCN(C(=O)c2ccc3c(c2)N(c2ncc(-c4ccccc4F)cn2)CC32CC2)CC1` [Compound 76, 3-[4-[1-[5-(2-Fluorophenyl)-pyrimidin-2-yl]-spiro[1,2-dihydro-indole-3,1′-cyclopropane]-6-carbonyl]-piperazin-1-yl]-propionitrile]: the IC50 lay within 0.1 to 1 µM.

Regarding `O=C(c1ccc2c(c1)N(c1ncc(-c3ccc(F)c(F)c3)cn1)CC21CC1)N1CCOCC1` [Compound 53, [1-[5-(3,4-Difluoro-phenyl)-pyrimidin-2-yl]-spiro[1,2-dihydro-indole-3,1′-cyclopropane]-6-yl]-morpholin-4-yl-methanone], the IC50 fell in the range of 0.1 to 1 µM.

On to `N#Cc1ccsc1-c1cnc(N2CC3(CC3)c3ccc(C(=O)N4CCOCC4)cc32)nc1` [Compound 153, 2-[2-[6-(Morpholine-4-carbonyl)-spiro[1,2-dihydro-indole-3,1′-cyclopropane]-1-yl]-pyrimidin-5-yl]-thiophene-3-carbonitrile], for which the IC50 was under 0.1 µM.

For the compound `CN1CCN(C(=O)c2ccc3c(c2)N(c2ncc(-c4ccccc4F)cn2)CC32CC2)CC1` [Compound 60, [1-[5-(2-Fluorophenyl)-pyrimidin-2-yl]-spiro[1,2-dihydro-indole-3,1′-cyclopropane]-6-yl]-(4-methyl-piperazin-1-yl)-methanone], the IC50 was under 0.1 µM.

As to `COc1ccccc1-c1cnc(N2CC3(CC3)c3ccc(C(=O)N4CCOCC4)cc32)nc1` [Compound 31, [1-[5-(2-Methoxyphenyl)-pyrimidin-2-yl]-spiro[1,2-dihydro-indole-3,1′-cyclopropane]-6-yl]-morpholin-4-yl-methanone], the IC50 is under 0.1 µM.

Regarding `CN(C(=O)c1ccc2c(c1)N(c1ncc(-c3ccccc3F)cn1)CC21CC1)c1ccncc1` [Compound 88, 1-[5-(2-Fluorophenyl)-pyrimidin-2-yl]-N-methyl-N-pyridin-4-yl-spiro[1,2-dihydro-indole-3,1′-cyclopropane]-6-carboxylic acid amide], the IC50 fell in the range of 0.1 to 1 µM.
